# Several values for one entry are separate records, joined by “and”; a condition that tells them apart may be missing. Equal entries are not always repeated. Activity calls are given as the source filed them. No rule for the calls is given here.
# System: rodent lifetime carcinogenesis bioassay, tumor incidence TD50
# Experiment: carcinogenic potency in animals, long-term in vivo studies, CPDB compilation (AID 1745844)
# [1] = mouse, strain ICI, males, by gavage, site: liver, lesion: several types, types named in the paper, dosed 80 weeks, study length 98 weeks
# [2] = mouse, strain ICI, males, by gavage, site: lung, lesion: several types, types named in the paper, dosed 80 weeks, study length 98 weeks
compound,measurement,setting,value
ClC(Cl)Cl,TD50,"dog, strain Beagle, females, in feed, site: any site (literature study), lesion: several types, types named in the paper, dosed 376 weeks, study length 397 weeks",10 mg/kg/day (inactive)
same,carcinogen call,"dog, strain Beagle, females, in feed, site: liver, lesion: one or several types, types not named, dosed 376 weeks, study length 397 weeks",negative (inactive)
same,TD50,"dog, strain Beagle, males, in feed, site: any site (literature study), lesion: several types, types named in the paper, dosed 376 weeks, study length 397 weeks",13.3 mg/kg/day (inactive)
same,carcinogen call,"dog, strain Beagle, males, in feed, site: liver, lesion: one or several types, types not named, dosed 376 weeks, study length 397 weeks",negative (inactive)
same,TD50,"mouse, strain B6C3F1, females, by gavage, site: any site (literature study), lesion: several types, types named in the paper, dosed 78 weeks, study length 92 weeks",54.1 mg/kg/day
same,TD50,"mouse, strain B6C3F1, females, by gavage, site: liver, lesion: hepatocellular adenoma + hepatocellular carcinoma + neoplastic nodule, dosed 78 weeks, study length 92 weeks",48 mg/kg/day
same,TD50,"mouse, strain B6C3F1, females, by gavage, site: liver, lesion: hepatocellular carcinoma, dosed 78 weeks, study length 92 weeks",48 mg/kg/day
same,carcinogen call,"mouse, strain B6C3F1, females, in drinking water, site: any site (literature study), lesion: several types, types named in the paper, dosed 104 weeks, study length 104 weeks",negative (inactive)
same,carcinogen call,"mouse, strain B6C3F1, females, in drinking water, site: liver, lesion: hepatocellular adenoma, dosed 104 weeks, study length 104 weeks",negative (inactive)
same,TD50,"mouse, strain B6C3F1, females, in drinking water, site: liver, lesion: hepatocellular carcinoma, dosed 104 weeks, study length 104 weeks",20200 mg/kg/day (inactive)
same,carcinogen call,"mouse, strain B6C3F1, females, in drinking water, site: liver, lesion: several types, types named in the paper, dosed 104 weeks, study length 104 weeks",negative (inactive)
same,TD50,"mouse, strain B6C3F1, males, by gavage, site: any site (literature study), lesion: several types, types named in the paper, dosed 78 weeks, study length 92 weeks",71.1 mg/kg/day
same,TD50,"mouse, strain B6C3F1, males, by gavage, site: liver, lesion: hepatocellular adenoma + hepatocellular carcinoma + neoplastic nodule, dosed 78 weeks, study length 92 weeks",56.2 mg/kg/day
same,TD50,"mouse, strain B6C3F1, males, by gavage, site: liver, lesion: hepatocellular carcinoma, dosed 78 weeks, study length 92 weeks",56.2 mg/kg/day
same,carcinogen call,"mouse, strain C57BL, males, by gavage, site: any site (literature study), lesion: several types, types named in the paper, dosed 80 weeks, study length 104 weeks",negative (inactive)
same,carcinogen call,"mouse, strain C57BL, males, by gavage, site: liver, lesion: one or several types, types not named, dosed 80 weeks, study length 104 weeks",negative (inactive)
same,TD50,"mouse, strain C57BL, males, by gavage, site: lung, lesion: several types, types named in the paper, dosed 80 weeks, study length 104 weeks",728 mg/kg/day (inactive)
same,carcinogen call,"mouse, strain CBA, males, by gavage, site: any site (literature study), lesion: several types, types named in the paper, dosed 80 weeks, study length 104 weeks",negative (inactive)
same,carcinogen call,"mouse, strain CBA, males, by gavage, site: liver, lesion: several types, types named in the paper, dosed 80 weeks, study length 104 weeks",negative (inactive)
same,carcinogen call,"mouse, strain CBA, males, by gavage, site: lung, lesion: several types, types named in the paper, dosed 80 weeks, study length 104 weeks",negative (inactive)
same,TD50,"mouse, strain CF-1, males, by gavage, site: any site (literature study), lesion: several types, types named in the paper, dosed 80 weeks, study length 93 weeks",140 mg/kg/day (inactive)
same,TD50,"mouse, strain CF-1, males, by gavage, site: liver, lesion: one or several types, types not named, dosed 80 weeks, study length 93 weeks",1430 mg/kg/day (inactive)
same,TD50,"mouse, strain CF-1, males, by gavage, site: lung, lesion: several types, types named in the paper, dosed 80 weeks, study length 93 weeks",376 mg/kg/day (inactive)
same,TD50,"mouse, strain CFLP, males, by gavage, site: kidney, lesion: several types, types named in the paper, dosed 80 weeks, study length 104 weeks",153 mg/kg/day
same,carcinogen call,"mouse, strain CFLP, males, by gavage, site: liver, lesion: one or several types, types not named, dosed 80 weeks, study length 104 weeks",negative (inactive)
same,TD50,"mouse, strain CFLP, males, by gavage, site: lung, lesion: one or several types, types not named, dosed 80 weeks, study length 104 weeks",4350 mg/kg/day (inactive)
same,TD50,"mouse, strain Crj:BDF1, females, inhaled, site: liver, lesion: hepatocellular carcinoma, dosed 104 weeks, study length 104 weeks",2670 mg/kg/day
same,TD50,"mouse, strain Crj:BDF1, females, inhaled, site: liver, lesion: several types, types named in the paper, dosed 104 weeks, study length 104 weeks",909 mg/kg/day
same,TD50,"mouse, strain Crj:BDF1, females, inhaled, site: pituitary gland, lesion: adenoma, dosed 104 weeks, study length 104 weeks",2070 mg/kg/day
same,TD50,"mouse, strain Crj:BDF1, males, inhaled, site: kidney, lesion: renal-cell adenoma, dosed 104 weeks, study length 104 weeks",1250 mg/kg/day
same,TD50,"mouse, strain Crj:BDF1, males, inhaled, site: kidney, lesion: renal-cell carcinoma, dosed 104 weeks, study length 104 weeks",287 mg/kg/day
same,TD50,"mouse, strain Crj:BDF1, males, inhaled, site: kidney, lesion: several types, types named in the paper, dosed 104 weeks, study length 104 weeks",226 mg/kg/day
same,TD50,"mouse, strain Crj:BDF1, males, inhaled, site: liver, lesion: several types, types named in the paper, dosed 104 weeks, study length 104 weeks",402 mg/kg/day
same,TD50,"mouse, strain Crj:BDF1, males, inhaled, site: lung, lesion: alveolar/bronchiolar carcinoma, dosed 104 weeks, study length 104 weeks",3530 mg/kg/day
same,carcinogen call,"mouse, strain ICI, females, by gavage, site: any site (literature study), lesion: several types, types named in the paper, dosed 80 weeks, study length 96 weeks",negative (inactive)
same,carcinogen call,"mouse, strain ICI, females, by gavage, site: liver, lesion: one or several types, types not named, dosed 80 weeks, study length 96 weeks",negative (inactive)
same,TD50,"mouse, strain ICI, females, by gavage, site: lung, lesion: one or several types, types not named, dosed 80 weeks, study length 96 weeks",316 mg/kg/day (inactive)
same,TD50,"mouse, strain ICI, males, by gavage, site: any site (literature study), lesion: several types, types named in the paper, dosed 80 weeks, study length 96 weeks",45.4 mg/kg/day
same,TD50,"mouse, strain ICI, males, by gavage, site: any site (literature study), lesion: several types, types named in the paper, dosed 80 weeks, study length 98 weeks",88.5 mg/kg/day
same,TD50,"mouse, strain ICI, males, by gavage, site: kidney, lesion: several types, types named in the paper, dosed 80 weeks, study length 96 weeks",139 mg/kg/day
same,TD50,"mouse, strain ICI, males, by gavage, site: kidney, lesion: several types, types named in the paper, dosed 80 weeks, study length 98 weeks",278 mg/kg/day and 95.5 mg/kg/day
same,TD50,"mouse, strain ICI, males, by gavage, site: liver, lesion: one or several types, types not named, dosed 80 weeks, study length 96 weeks",324 mg/kg/day (inactive)
same,TD50,[1],437 mg/kg/day (inactive)
same,carcinogen call,[1],negative (inactive)
same,TD50,"mouse, strain ICI, males, by gavage, site: lung, lesion: one or several types, types not named, dosed 80 weeks, study length 96 weeks",9830 mg/kg/day (inactive)
same,TD50,[2],336 mg/kg/day (inactive)
same,carcinogen call,[2],negative (inactive)
same,TD50,"rat, strain F344/DuCrj, females, inhaled, site: kidney, lesion: renal-cell adenoma, dosed 104 weeks, study length 104 weeks",1590 mg/kg/day (inactive)
same,TD50,"rat, strain F344/DuCrj, females, inhaled, site: kidney, lesion: transitional-cell carcinoma, dosed 104 weeks, study length 104 weeks",1590 mg/kg/day (inactive)
same,TD50,"rat, strain F344/DuCrj, females, inhaled, site: liver, lesion: hepatocellular adenoma, dosed 104 weeks, study length 104 weeks",2180 mg/kg/day (inactive)
same,carcinogen call,"rat, strain F344/DuCrj, males, inhaled, site: kidney, lesion: one or several types, types not named, dosed 104 weeks, study length 104 weeks",negative (inactive)
same,carcinogen call,"rat, strain F344/DuCrj, males, inhaled, site: liver, lesion: several types, types named in the paper, dosed 104 weeks, study length 104 weeks",negative (inactive)
same,TD50,"rat, strain Osborne-Mendel, females, by gavage, site: any site (literature study), lesion: several types, types named in the paper, dosed 78 weeks, study length 110 weeks",68.2 mg/kg/day
same,TD50,"rat, strain Osborne-Mendel, females, by gavage, site: liver, lesion: hepatocellular adenoma + hepatocellular carcinoma + neoplastic nodule, dosed 78 weeks, study length 110 weeks",1130 mg/kg/day
same,TD50,"rat, strain Osborne-Mendel, females, by gavage, site: thyroid gland, lesion: c-cell adenoma + c-cell carcinoma + follicular-cell adenoma + follicular-cell carcinoma, dosed 78 weeks, study length 110 weeks",126 mg/kg/day (inactive)
same,TD50,"rat, strain Osborne-Mendel, males, by gavage, site: any site (literature study), lesion: several types, types named in the paper, dosed 78 weeks, study length 110 weeks",194 mg/kg/day
same,TD50,"rat, strain Osborne-Mendel, males, by gavage, site: kidney, lesion: tubular-cell adenoma + tubular-cell adenocarcinoma, dosed 78 weeks, study length 110 weeks",119 mg/kg/day
same,TD50,"rat, strain Osborne-Mendel, males, by gavage, site: liver, lesion: hepatocellular adenoma + hepatocellular carcinoma + neoplastic nodule, dosed 78 weeks, study length 110 weeks",455 mg/kg/day
same,TD50,"rat, strain Osborne-Mendel, males, in drinking water, site: all sites, lesion: neurofibroma, dosed 104 weeks, study length 104 weeks",2200 mg/kg/day
same,TD50,"rat, strain Osborne-Mendel, males, in drinking water, site: all sites, lesion: several types, types named in the paper, dosed 104 weeks, study length 104 weeks",1360 mg/kg/day
same,TD50,"rat, strain Osborne-Mendel, males, in drinking water, site: any site (literature study), lesion: several types, types named in the paper, dosed 104 weeks, study length 104 weeks",1970 mg/kg/day
same,TD50,"rat, strain Osborne-Mendel, males, in drinking water, site: kidney, lesion: several types, types named in the paper, dosed 104 weeks, study length 104 weeks",519 mg/kg/day and 606 mg/kg/day
same,TD50,"rat, strain Osborne-Mendel, males, in drinking water, site: kidney, lesion: tubular-cell adenoma, dosed 104 weeks, study length 104 weeks",972 mg/kg/day
same,TD50,"rat, strain Sprague-Dawley, females, by gavage, site: any site (literature study), lesion: malignant tumor, dosed 80 weeks, study length 95 weeks",276 mg/kg/day (inactive)
same,TD50,"rat, strain Sprague-Dawley, females, by gavage, site: any site (literature study), lesion: several types, types named in the paper, dosed 80 weeks, study length 95 weeks",78.3 mg/kg/day (inactive)
same,TD50,"rat, strain Sprague-Dawley, females, by gavage, site: liver, lesion: cystadenoma, dosed 80 weeks, study length 95 weeks",1200 mg/kg/day (inactive)
same,carcinogen call,"rat, strain Sprague-Dawley, males, by gavage, site: any site (literature study), lesion: malignant tumor, dosed 80 weeks, study length 95 weeks",negative (inactive)
same,carcinogen call,"rat, strain Sprague-Dawley, males, by gavage, site: any site (literature study), lesion: several types, types named in the paper, dosed 80 weeks, study length 95 weeks",negative (inactive)
same,carcinogen call,"rat, strain Sprague-Dawley, males, by gavage, site: liver, lesion: one or several types, types not named, dosed 80 weeks, study length 95 weeks",negative (inactive)
same,TD50,"rat, strain Wistar, females, in drinking water, site: liver, lesion: hepatocellular carcinoma, dosed 187 weeks, study length 187 weeks",10000 mg/kg/day
same,TD50,"rat, strain Wistar, females, in drinking water, site: liver, lesion: neoplastic nodule, dosed 187 weeks, study length 187 weeks",883 mg/kg/day
same,TD50,"rat, strain Wistar, males, in drinking water, site: kidney, lesion: adenocarcinoma, dosed 172 weeks, study length 172 weeks",5300 mg/kg/day
same,TD50,"rat, strain Wistar, males, in drinking water, site: kidney, lesion: adenoma, dosed 172 weeks, study length 172 weeks",5300 mg/kg/day
same,TD50,"rat, strain Wistar, males, in drinking water, site: liver, lesion: hepatocellular carcinoma, dosed 172 weeks, study length 172 weeks",5300 mg/kg/day

# Reference: PubChem BioAssay AID1745844 (Carcinogenic Potency Database (CPDB), 2022)
